Results published in PMC5814754, “Quantitative, Wide-Spectrum Kinase Profiling in Live Cells for Assessing the Effect of Cellular ATP on Target Engagement” (Cell Chemical Biology, 2018).
Read-outs that look alike come from different tables or passages of the source.

Assays:
MuSK = biological target: T1, MuSK (Homo sapiens, UniProt O15146); test: NanoBRET target engagement, MuSK-NanoLuc, HEK293 cells (live, ATP depleted, permeabilized); type: binding; conditions: read-out: Tracer Affinity EC50
T1 sequence (O15146 24-869): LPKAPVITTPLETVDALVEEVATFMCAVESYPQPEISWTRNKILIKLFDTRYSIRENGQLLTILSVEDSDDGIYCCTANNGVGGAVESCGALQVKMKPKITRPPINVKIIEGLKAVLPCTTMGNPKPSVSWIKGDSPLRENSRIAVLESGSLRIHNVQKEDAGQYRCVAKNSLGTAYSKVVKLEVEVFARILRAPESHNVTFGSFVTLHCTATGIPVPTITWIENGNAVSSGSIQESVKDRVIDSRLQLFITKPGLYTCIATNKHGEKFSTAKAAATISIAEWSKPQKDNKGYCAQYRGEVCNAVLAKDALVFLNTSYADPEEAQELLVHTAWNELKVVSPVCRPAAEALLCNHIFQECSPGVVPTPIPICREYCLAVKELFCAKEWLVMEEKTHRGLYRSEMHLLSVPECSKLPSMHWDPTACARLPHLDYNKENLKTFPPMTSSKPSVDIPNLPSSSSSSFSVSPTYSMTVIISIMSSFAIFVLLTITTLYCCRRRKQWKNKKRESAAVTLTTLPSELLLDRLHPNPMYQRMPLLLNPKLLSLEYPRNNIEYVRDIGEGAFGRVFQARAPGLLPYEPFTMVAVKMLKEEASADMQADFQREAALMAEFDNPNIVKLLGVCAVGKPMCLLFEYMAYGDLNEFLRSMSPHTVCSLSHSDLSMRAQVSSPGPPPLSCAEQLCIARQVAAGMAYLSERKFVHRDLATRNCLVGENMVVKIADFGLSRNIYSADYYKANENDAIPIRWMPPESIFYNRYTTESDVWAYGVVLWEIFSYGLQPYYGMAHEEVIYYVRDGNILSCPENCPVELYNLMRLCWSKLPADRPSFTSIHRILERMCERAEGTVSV

INSR = conditions: read-out: Live Cell IC50 Phospho Elisa; ref Cui et al., 2011; cited from earlier work
TRKA = conditions: read-out: Live Cell IC50 Phospho Elisa; ref Cui et al., 2011; cited from earlier work
MET = conditions: read-out: Live Cell IC50 Phospho Elisa; ref Cui et al., 2011; cited from earlier work

Row | SMILES | EC50 (MuSK; ATP Depleted) [nM] | EC50 (MuSK; Live) [nM] | EC50 (MuSK; Permeabilized) [nM] | IC50 (INSR) [nM] | IC50 (TRKA) [nM] | IC50 (MET) [nM]
1 | CNC(=O)c1ccccc1Nc1nc(Nc2ccc(N3CCN(C(=O)CCOCCOCCOCCOCCNC(=O)CCc4ccc5n4[B-](F)(F)[N+]4=C(c6ccc[nH]6)C=CC4=C5)CC3)cc2)ncc1Cl [Energy Transfer Probe 5, 2-((2-((4-(4-(1-amino-3,6,9,12-tetraoxapentadecan-15-oyl)piperazin-1-yl)phenyl)amino)-5-chloropyrimidin-4-yl)amino)-N-methylbenzamide-NanoBRET 590] | > 1000 | > 1000 | 180 ± 20 |  |  | 
2 | C[C@@H](Oc1cc(-c2cnn(C3CCNCC3)c2)cnc1N)c1c(Cl)ccc(F)c1Cl [Crizotinib] |  |  |  | […] | 580 | […]
